Measured values taken from PubChem BioAssay AID2060486 (Molecular Pharmacology Branch, DTP, NCI, 2025).

Test system: IGROV1 complex spheroids (HUVEC, MSC), viability % test/control
Experiment: Anticancer human tumor IGROV1 cell line growth inhibition [GQUAD];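 note: spheroids exposed to compounds for 7 days before readout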;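 for viability, T/C: 100% = DMSO vehicle control viability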
Conditions: for IC50: curve of first compound; for viability, T/C: stronger effect = lower value
Summary of the method: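 Tumor cells were grown as complex spheroids with HUVEC endothelial cells and mesenchymal stem cells as stroma. G-quadruplex stabilizers were combined with targeted agents over half-log dilutions from near the clinical Cmax, or from 10 microM.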

CCCS(=O)(=O)Nc1ccc(F)c(C(=O)c2c[nH]c3ncc(-c4ccc(Cl)cc4)cc23)c1F + CN(C)c1ccc(Nc2c3ccc(NC(=O)CCN4CCCC4)cc3nc3cc(NC(=O)CCN4CCCC4)ccc23)cc1
IC50 (second compound 0.0316 µM): 5.67 µM | IC50 (second compound 0.1 µM): 5.61 µM | IC50 (second compound 0.316 µM): 5.39 µM | IC50 (second compound 1 µM): 5.19 µM | IC50 (second compound 3.16 µM): 4.48 µM | IC50 (second compound 10 µM): 1.46 µM | viability, T/C (second compound 0.0316 µM, first compound 0.0316 µM): 103% | viability, T/C (second compound 0.0316 µM, first compound 0.1 µM): 84.7% | viability, T/C (second compound 0.0316 µM, first compound 0.316 µM): 112% | viability, T/C (second compound 0.0316 µM, first compound 1 µM): 79.3% | viability, T/C (second compound 0.0316 µM, first compound 3.16 µM): 86.7% | viability, T/C (second compound 0.0316 µM, first compound 10 µM): 17.7% | viability, T/C (second compound 0.1 µM, first compound 0.0316 µM): 103% | viability, T/C (second compound 0.1 µM, first compound 0.1 µM): 73.7% | viability, T/C (second compound 0.1 µM, first compound 0.316 µM): 90.4% | viability, T/C (second compound 0.1 µM, first compound 1 µM): 72% | viability, T/C (second compound 0.1 µM, first compound 3.16 µM): 83.5% | viability, T/C (second compound 0.1 µM, first compound 10 µM): 16.2% | viability, T/C (second compound 0.316 µM, first compound 0.0316 µM): 86.2% | viability, T/C (second compound 0.316 µM, first compound 0.1 µM): 99.7% | viability, T/C (second compound 0.316 µM, first compound 0.316 µM): 98% | viability, T/C (second compound 0.316 µM, first compound 1 µM): 80.5% | viability, T/C (second compound 0.316 µM, first compound 3.16 µM): 82.3% | viability, T/C (second compound 0.316 µM, first compound 10 µM): 15.1% | viability, T/C (second compound 1 µM, first compound 0.0316 µM): 57.9% | viability, T/C (second compound 1 µM, first compound 0.1 µM): 97.9% | viability, T/C (second compound 1 µM, first compound 0.316 µM): 88% | viability, T/C (second compound 1 µM, first compound 1 µM): 89.3% | viability, T/C (second compound 1 µM, first compound 3.16 µM): 77.7% | viability, T/C (second compound 1 µM, first compound 10 µM): 13.2% | viability, T/C (second compound 3.16 µM, first compound 0.0316 µM): 78.1% | viability, T/C (second compound 3.16 µM, first compound 0.1 µM): 88.7% | viability, T/C (second compound 3.16 µM, first compound 0.316 µM): 82.4% | viability, T/C (second compound 3.16 µM, first compound 1 µM): 96.2% | viability, T/C (second compound 3.16 µM, first compound 3.16 µM): 67.4% | viability, T/C (second compound 3.16 µM, first compound 10 µM): 9.77% | viability, T/C (second compound 10 µM, first compound 0.0316 µM): 53.1% | viability, T/C (second compound 10 µM, first compound 0.1 µM): 59.3% | viability, T/C (second compound 10 µM, first compound 0.316 µM): 60.7% | viability, T/C (second compound 10 µM, first compound 1 µM): 67.9% | viability, T/C (second compound 10 µM, first compound 3.16 µM): 29.2% | viability, T/C (second compound 10 µM, first compound 10 µM): 3.73%
